Results taken from paper PMC10511752, “Natural product-inspired synthesis of coumarin–chalcone hybrids as potential anti-breast cancer agents” (Frontiers in Pharmacology, 2023).

Experiments:
[1] = system: tubulin; parameters: method as in Miller et al., 1997; details: ref Miller et al., 1997; read-out: IC50, inhibition of polymerization of tubulin; cited from earlier work
[2] = system: normal human embryonic kidney cell line HEK-293; assay: MTT assay, toxicity on normal cell line HEK-293; type: cell-based; details: HEK293, normal HEK-293 cells (toxicity), 48 h, read-out: IC50 values (mean ± SEM) HEK-293
Procedure: (§3) MCF-7, MDA-MB231, and HEK293 cell lines were purchased from ATCC (Manassas, VA, United States). […] They were maintained in Dulbecco’s modified Eagle medium (DMEM) supplemented with 10% fetal bovine serum (FBS). Cells were cultured at 37°C and 5% CO2. Before the experiments, cells were cultured in phenol red-free DMEM supplemented with 10% charcoal stripped fetal bovine serum.

[3] = system: MDA-MB-231 (breast cancer) cells; assay: MTT cell proliferation assay, MDA-MB-231; type: cell-based; details: Homo sapiens, MDA-MB-231 (ER -ve), 48 h, read-out: IC50 values (mean ± SEM) MDA-MB-231
Procedure: as §3

[4] = system: HeLa (cervical cancer) cells; assay: MTT cell proliferation assay, HeLa; type: cell-based; details: Homo sapiens, 48 h, read-out: IC50 values (mean ± SEM) HeLa
Procedure: (§1) We conducted an in vitro MTT assay to evaluate the anti-cancer activity of the synthesized neo-tanshinlactone–chalcone hybrid compounds, 26–37, against four human cancer cell lines, namely, MCF-7 (breast cancer), MDA-MB-231 (breast cancer), Ishikawa (endometrial cancer), and HeLa (cervical cancer). The toxicity of the hybrid molecules on the normal human embryonic kidney cell line HEK-293 was also evaluated.
(§2) The synthesized hybrid compounds were tested for their anti-cancer activity using the MTT reduction assay on 2.5 × 10^3 cells per well that were seeded in 100 µL DMEM supplemented with 10% FBS in each well of 96-well microculture plates. After seeding, the cells were incubated for 24 h at 37°C in a CO2 incubator. The required concentrations of the compounds were achieved by diluting the solutions in the culture medium. The media was removed from the wells after 48 h, and 100 µL of MTT (0.5 mg/mL) was added to each well. The plates were then incubated for an additional 3 h. After carefully removing the supernatant from each well, the formazan crystals were dissolved in 100 µL of DMSO. The absorbance was then recorded at a wavelength of 540 nm ([Saquib et al., 2021]; [Gupta et al., 2022]; [Iqbal et al., 2023])

[5] = system: MCF-7 (breast cancer) cells; assay: MTT cell proliferation assay, MCF-7; type: cell-based; details: Homo sapiens, MCF7, MCF-7 (ER +ve), 48 h, read-out: IC50 values (mean ± SEM) MCF-7
Procedure: as §3

[6] = system: Ishikawa (endometrial cancer) cells; assay: MTT cell proliferation assay, Ishikawa; type: cell-based; details: Homo sapiens, 48 h, read-out: IC50 values (mean ± SEM) Ishikawa
Procedure: as §1
MCF-7, MDA-MB231, and HEK293 cell lines were purchased from ATCC (Manassas, VA, United States). Ishikawa cell lines were obtained from the European Collection of Cell Cultures. They were maintained in Dulbecco’s modified Eagle medium (DMEM) supplemented with 10% fetal bovine serum (FBS). Cells were cultured at 37°C and 5% CO2. Before the experiments, cells were cultured in phenol red-free DMEM supplemented with 10% charcoal stripped fetal bovine serum.
as §2

Row | IC50 [3] [µM] | IC50 [4] [µM] | IC50 [5] [µM] | IC50 [6] [µM] | melting point [°C] | Compound | IC50 [1] [µM] | IC50 [2] [µM]
1 |  |  |  |  |  | COc1cc2c(ccc1=O)[C@H]1CC[C@]3(C)[C@@H](O)CC[C@H]3[C@@H]1CC2 [2-Methoxyestradiol–colchicine hybrid A] | 2.1 | 
2 |  |  |  |  |  | COc1cc2c(cc1O)CC[C@@H]1[C@@H]2CC[C@]2(C)[C@@H](O)CC[C@@H]12 [2-methoxyestradiol (2-ME), 2-methoxyestradiol] | 14.2 | 
3 | 16.6 ± 1.25 | > 20 | 17.2 ± 1.75 | > 20 | 272 to 273 | COc1cc(OC)cc(C(=O)/C=C/c2cc(=O)oc3c2ccc2ccccc23)c1 [Compound 26, (E)-4-(3-(3,5-Dimethoxyphenyl)-3-oxoprop-1-en-1-yl)-2H-benzo[h]chromen-2-one] |  | > 20
4 | > 20 | > 20 | > 20 | 17.4 ± 2.72 |  | COc1ccc(C(=O)/C=C/c2cc(=O)oc3c2ccc2ccccc23)cc1 [Compound 27, (E)-4-(3-(4-Methoxyphenyl)-3-oxoprop-1-enyl)-2H-benzo[h]chromen-2-one] |  | > 20
5 | > 20 | > 20 | 18.6 ± 2.3 | > 20 | 236 to 237 | COc1ccc(C(=O)/C=C/c2cc(=O)oc3c2ccc2c(OC)cccc23)cc1 [Compound 28, (E)-7-Methoxy-4-(3-(4-methoxyphenyl)-3-oxoprop-1-enyl)-2H-benzo[h]chromen-2-one] |  | > 20
6 | > 20 | > 20 | > 20 | > 20 | 180 to 182 | COc1cccc2c1ccc1c(/C=C/C(=O)c3ccccc3)cc(=O)oc12 [Compound 29, (E)-7-Methoxy-4-(3-oxo-3-phenylprop-1-en-1-yl)-2H-benzo[h]chromen-2-one] |  | > 20
7 | 8.5 ± 1.12 |  | 6.8 ± 1.48 |  |  | COc1cc(OC)cc(C(=O)/C=C/c2cc(=O)oc3c2ccc2c(OC)cccc23)c1 [Compound 30, (E)-4-(3-(3,5-Dimethoxyphenyl)-3-oxoprop-1-en-1-yl)-7-methoxy-2H-benzo[h]chromen-2-one] |  | > 20
8 | 15.7 ± 1.01 | > 20 | 14.4 ± 1.68 | > 20 |  | COc1cc(C(=O)/C=C/c2cc(=O)oc3c2ccc2ccccc23)cc(OC)c1OC [Compound 31, (E)-4-(3-Oxo-3-(3,4,5-trimethoxyphenyl)prop-1-enyl)-2H-benzo[h]chromen-2-one] |  | > 20
9 | > 20 | > 20 | > 20 | > 20 | 245 to 246 | O=C(/C=C/c1cc(=O)oc2c1ccc1ccccc12)c1ccccc1 [Compound 32, (E)-4-(3-Oxo-3-phenylprop-1-enyl)-2H-benzo[h]chromen-2-one] |  | > 20
10 | > 20 | > 20 | 16.3 ± 2.3 | > 20 | > 260 | COc1cc(C(=O)/C=C/c2cc(=O)oc3c2ccc2c(OC)cccc23)cc(OC)c1OC [Compound 33, (E)-7-Methoxy-4-(3-oxo-3-(3,4,5-trimethoxyphenyl)prop-1-enyl)-2H-benzo[h] chromen-2-one] |  | > 20
11 | > 20 | > 20 | > 20 | > 20 |  | O=C(/C=C/c1cc(=O)oc2c1ccc1ccccc12)c1ccc(Cl)cc1 [Compound 34] |  | > 20
12 | > 20 | > 20 | > 20 | > 20 |  | COc1cccc2c1ccc1c(/C=C/C(=O)c3ccc(Cl)cc3)cc(=O)oc12 [Compound 35] |  | > 20
13 | > 20 | 16.8 ± 3.14 | > 20 | 19.2 ± 3.12 |  | O=C(/C=C/c1cc(=O)oc2c1ccc1ccccc12)c1ccc(Cl)c(Cl)c1 [Compound 36] |  | > 20
14 | > 20 | 17.2 ± 2.88 | > 20 | 18.6 ± 2.56 |  | COc1cccc2c1ccc1c(/C=C/C(=O)c3ccc(Cl)c(Cl)c3)cc(=O)oc12 [Compound 37] |  | > 20
